Measurements taken from ChEMBL document CHEMBL5512666, “Selenization of Small Molecule Drugs: A New Player on the Board” (J Med Chem, 2024).
Converted amounts (≈) assume the structure as drawn.

Assays:
[1] = test system: Candida albicans; experiment: Antifungal activity against azole-resistant Candida albicans clinical isolate CaR assessed as fungal growth inhibition incubated for 24 hrs by CLSI protocol based broth microdilution method; assay type: functional
[2] = test system: Candida albicans; experiment: Antifungal activity against azole-resistant Candida albicans clinical isolate 17 assessed as fungal growth inhibition incubated for 24 hrs by CLSI protocol based broth microdilution method; assay type: functional
[3] = test system: Candida albicans; experiment: Antifungal activity against azole-resistant Candida albicans clinical isolate 632 assessed as fungal growth inhibition incubated for 24 hrs by CLSI protocol based broth microdilution method; assay type: functional
[4] = test system: Candida albicans; experiment: Antifungal activity against azole-resistant Candida albicans clinical isolate 901 assessed as fungal growth inhibition incubated for 24 hrs by CLSI protocol based broth microdilution method; assay type: functional
[5] = test system: Candida albicans; experiment: Antifungal activity against azole-resistant Candida albicans clinical isolate 904 assessed as fungal growth inhibition incubated for 24 hrs by CLSI protocol based broth microdilution method; assay type: functional
[6] = Cytotoxicity against human A549 cells assessed as reduction in cell viability incubated for 96 hrs by MTT assay; assay type: toxicity, cell-based
[7] = Cytotoxicity against human MDA-MB-231 cells assessed as reduction in cell viability incubated for 96 hrs by MTT assay; assay type: toxicity, cell-based
[8] = Cytotoxicity against human SGC cells assessed as reduction in cell viability incubated for 96 hrs by MTT assay; assay type: toxicity, cell-based
[9] = test system: HeLa; experiment: Cytotoxicity against human HeLa cells measured after 72 hrs; assay type: functional, cell-based
[10] = test system: A549; experiment: Cytotoxicity against human A549 cells measured after 72 hrs; assay type: functional, cell-based; conditions: A549, 72 h
[11] = test system: HCT-116; experiment: Cytotoxicity against human HCT-116 cells measured after 72 hrs; assay type: functional, cell-based; conditions: HCT-116, 72 h
[12] = Cytotoxicity against mouse NIH3T3 cells measured after 72 hrs; assay type: toxicity, cell-based
[13] = Cytotoxicity against mouse L929 cells measured after 72 hrs; assay type: toxicity, cell-based
[14] = Antioxidant activity assessed as inhibition of peroxynitrite mediated L-tyrosine nitration in sodium phosphate buffer at pH 7.5 incubated for 7 mins by RP-HPLC analysis; assay type: functional
[15] = test system: Candida albicans; experiment: Antifungal activity against Candida albicans CPCC 400616; assay type: functional
[16] = test system: Candida albicans; experiment: Antifungal activity against Candida albicans SC5314; assay type: functional
[17] = test system: Cryptococcus neoformans; experiment: Antifungal activity against Cryptococcus neoformans CGMCC 2.3161; assay type: functional
[18] = test system: Pichia kudriavzevii; experiment: Antifungal activity against Candida krusei AS 2.1045; assay type: functional
[19] = test system: Candida tropicalis; experiment: Antifungal activity against Candida tropicalis CGMCC 2.3739; assay type: functional
[20] = test system: Nakaseomyces glabratus; experiment: Antifungal activity against Candida glabrata; assay type: functional
[21] = test system: Candida parapsilosis; experiment: Antifungal activity against Candida parapsilosis 22019; assay type: functional; conditions: Lodderomyces parapsilosis
[22] = test system: Aspergillus fumigatus; experiment: Antifungal activity against Aspergillus fumigatus CGMCC 3.7795; assay type: functional
[23] = Stability in rat plasma assessed as half life; assay type: ADME, cell-free
[24] = test system: MHCC97H; experiment: Antiproliferative activity against human MHCC97H cells assessed as reduction in cell viability incubated for 48 hrs by MTT assay; assay type: functional, cell-based
[25] = Inhibition of TrxR (unknown origin) expressed in MHCC97H cells incubated for 24 hrs by colorimetric assay; assay type: cell-based, Homo sapiens
[26] = test system: OVCAR-3; experiment: Antiproliferative activity against human OVCAR-3 cells; assay type: functional, cell-based
[27] = Antiproliferative activity against human OVCAR-10 cells; assay type: functional, cell-based
[28] = test system: ES-2; experiment: Antiproliferative activity against human ES2 cells; assay type: functional, cell-based
[29] = Antiproliferative activity against human HEY A8 cells; assay type: functional, cell-based
[30] = test system: HEK-293T; experiment: Antiproliferative activity against HEK293T; assay type: functional, cell-based; conditions: Homo sapiens
[31] = Antioxidant activity assessed as reduction in peroxynitrite mediated L-tyrosine nitration by measuring remaining activity relative to control; assay type: functional; parameters: concentration or dose not given beside the values
[32] = test system: Human alphaherpesvirus 1; experiment: Antiviral activity against HSV-1 infected in African green monkey Vero cells assessed as reduction in virus-induced cytopathic effect incubated for 3 days by MTT assay; assay type: functional, organism-based; conditions: Human alphaherpesvirus 1, Vero, 72 h
[33] = test system: Human alphaherpesvirus 2; experiment: Antiviral activity against HSV-2 infected in African green monkey Vero cells assessed as reduction in virus-induced cytopathic effect incubated for 3 days by MTT assay; assay type: functional, organism-based; conditions: Human alphaherpesvirus 2, Vero, 72 h
[34] = test system: Human alphaherpesvirus 3; experiment: Antiviral activity against VZV infected in African green monkey Vero cells assessed as reduction in virus-induced cytopathic effect incubated for 3 days by MTT assay; assay type: functional, organism-based; conditions: Human alphaherpesvirus 3, Vero, 72 h
[35] = test system: Human betaherpesvirus 5; experiment: Antiviral activity against […] infected in African green monkey Vero cells assessed as reduction in virus-induced cytopathic effect incubated for 3 days by MTT assay; assay type: functional, organism-based; conditions: Human betaherpesvirus 5, Vero, 72 h
[36] = biological target: Lactoperoxidase (Homo sapiens, UniProt P22079); experiment: Inhibition of LPO (unknown origin)-mediated L-tyrosine nitration incubated for 20 mins in presence of H2O2 and sodium nitrite by RP-HPLC analysis
Lactoperoxidase, sequence (P22079 whole entry): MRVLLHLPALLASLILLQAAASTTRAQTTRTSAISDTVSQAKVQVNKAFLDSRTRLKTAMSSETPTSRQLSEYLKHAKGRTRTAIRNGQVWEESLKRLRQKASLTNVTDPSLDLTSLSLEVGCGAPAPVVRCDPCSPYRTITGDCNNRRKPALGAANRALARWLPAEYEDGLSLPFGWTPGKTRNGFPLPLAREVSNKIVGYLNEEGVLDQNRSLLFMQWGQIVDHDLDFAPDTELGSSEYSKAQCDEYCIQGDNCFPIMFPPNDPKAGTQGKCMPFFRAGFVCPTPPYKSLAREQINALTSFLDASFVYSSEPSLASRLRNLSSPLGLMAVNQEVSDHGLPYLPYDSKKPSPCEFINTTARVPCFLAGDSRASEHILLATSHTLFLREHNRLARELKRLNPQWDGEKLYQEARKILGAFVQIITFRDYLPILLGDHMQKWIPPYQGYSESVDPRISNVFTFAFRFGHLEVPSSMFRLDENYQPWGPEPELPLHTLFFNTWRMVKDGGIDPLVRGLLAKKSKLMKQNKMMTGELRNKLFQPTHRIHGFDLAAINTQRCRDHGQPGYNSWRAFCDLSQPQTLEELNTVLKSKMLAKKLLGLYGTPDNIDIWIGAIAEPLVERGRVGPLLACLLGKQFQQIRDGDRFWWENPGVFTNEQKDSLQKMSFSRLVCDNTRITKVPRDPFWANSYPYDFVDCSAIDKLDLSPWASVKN

## Clc1ccc(-c2nn[se]c2-n2cncn2)c(Cl)c1
[1]
  MIC: 4 µg/mL (≈ 11.6 µM)
[2]
  MIC: 4 µg/mL (≈ 11.6 µM)
[3]
  MIC: 16 µg/mL (≈ 46.4 µM)
[4]
  MIC: 8 µg/mL (≈ 23.2 µM)
[5]
  MIC: 32 µg/mL (≈ 92.7 µM)
[6]
  IC50 at 96 h: 16.9 µg/mL (≈ 49.1 µM)
[7]
  IC50 at 96 h: 23.5 µg/mL (≈ 68.1 µM)
[8]
  IC50 at 96 h: 19.5 µg/mL (≈ 56.5 µM)

## CC[C@@]1(O)C(=O)OCc2c1cc1n(c2=O)Cc2cc3ccccc3nc2-1 [CAMPTOTHECIN]
[9]
  IC50: 0.108 µM
[10]
  IC50: 0.021 µM
[11]
  IC50: 0.011 µM
[12]
  IC50 at 72 h: 0.086 µM
[13]
  IC50 at 72 h: 1.13 µM

## Cc1cc(=O)[nH]c(=S)[nH]1 [METHYLTHIOURACIL]
[14]
  IC50: 66.7 µM

## Cc1cccc(C)c1[Se]C(Cn1ccnc1)c1ccc(Cl)cc1 (centres undefined)
[15]
  MIC: 0.03 µg/mL (≈ 0.077 µM)
[16]
  MIC: 0.03 µg/mL (≈ 0.077 µM)
[17]
  MIC: 0.13 µg/mL (≈ 0.334 µM)
[18]
  MIC: 0.03 µg/mL (≈ 0.077 µM)
[19]
  MIC: 0.06 µg/mL (≈ 0.154 µM)
[20]
  MIC: 0.13 µg/mL (≈ 0.334 µM)
[21]
  MIC: 0.03 µg/mL (≈ 0.077 µM)
[22]
  MIC: 1 µg/mL (≈ 2.57 µM)

## Cc1ccccc1[Se]C(Cn1ccnc1)c1ccc(Cl)cc1 (centres undefined)
[15]
  MIC: 0.06 µg/mL (≈ 0.16 µM)
[16]
  MIC: 0.03 µg/mL (≈ 0.0798 µM)
[17]
  MIC: 0.5 µg/mL (≈ 1.33 µM)
[18]
  MIC: 0.13 µg/mL (≈ 0.346 µM)
[19]
  MIC: 0.03 µg/mL (≈ 0.0798 µM)
[20]
  MIC: 0.5 µg/mL (≈ 1.33 µM)
[21]
  MIC: 0.5 µg/mL (≈ 1.33 µM)
[22]
  MIC: 4 µg/mL (≈ 10.6 µM)
[23]
  half-life: > 6 h

## N#Cc1cccc(-c2ccc(=O)n(Cc3cccc(-c4ncc([Se]CCCN5CCCCC5)cn4)c3)n2)c1
[24]
  IC50: 0.038 µM
[25]
  IC50: 0.654 µM

## CCC(C)n1ncn(-c2ccc(N3CCN(c4ccc(OCC5COC(Cn6cncn6)(c6ccc(Cl)cc6Cl)O5)cc4)CC3)cc2)c1=O (centres undefined) [ITRACONAZOLE]
[1]
  MIC: 8 µg/mL (≈ 11.3 µM)
[2]
  MIC: > 128 µg/mL
[3]
  MIC: > 128 µg/mL
[4]
  MIC: > 128 µg/mL
[5]
  MIC: > 128 µg/mL
[15]
  MIC: 0.25 µg/mL (≈ 0.354 µM)
[16]
  MIC: 0.03 µg/mL (≈ 0.0425 µM)
[17]
  MIC: 0.5 µg/mL (≈ 0.709 µM)
[18]
  MIC: 0.06 µg/mL (≈ 0.085 µM)
[19]
  MIC: 0.5 µg/mL (≈ 0.709 µM)
[20]
  MIC: 0.5 µg/mL (≈ 0.709 µM)
[21]
  MIC: 0.25 µg/mL (≈ 0.354 µM)
[22]
  MIC: 2 µg/mL (≈ 2.83 µM)

## O=c1[nH]cc(F)c(=O)[nH]1 [FLUOROURACIL]
[26]
  IC50: 18.9 µM
[27]
  IC50: 26.4 µM
[28]
  IC50: 25.9 µM
[29]
  IC50: 48.4 µM
[30]
  IC50: 56.2 µM

## COc1cccc(Cn2ccn(Cc3cccc(OC)c3)c2=[Se])c1
[14]
  IC50: 42.2 µM
[31]
  Activity: 82%

## CNC1NC(N)=Nc2c1ncn2C[Se]CCO (centres undefined)
[32]
  EC50: 14.3 µM
[33]
  EC50: 17.6 µM
[34]
  EC50: > 100 µM
[35]
  EC50: > 100 µM

## C=C1N(C)C=CN1CCCn1ccn(C)c1=[Se]
[31]
  Activity: 29%

## CNC1NC(N)=Nc2c1ncn2C[Se]C(CO)CO (centres undefined)
[32]
  EC50: > 100 µM
[33]
  EC50: > 100 µM
[34]
  EC50: > 100 µM
[35]
  EC50: 32.1 µM

## Cn1cc[nH]c1=[Se]
[14]
  IC50: 49.1 µM
[31]
  Activity: 66%

## Cn1ccn(C)c1=[Se]
[14]
  IC50: 12.2 µM
[31]
  Activity: 66.5%

## N#Cc1cccc(-c2ccc(=O)n(Cc3cccc(-c4ncc([Se]CCN5CCCC5)cn4)c3)n2)c1
[24]
  IC50: 0.063 µM
[25]
  IC50: 0.8 µM

## NC1=Nc2c(ncn2C[Se]CCO)C(N)N1 (centres undefined)
[32]
  EC50: 15.4 µM
[33]
  EC50: 32.2 µM
[34]
  EC50: > 100 µM
[35]
  EC50: > 100 µM

## Clc1ccc(-c2nn[se]c2-n2ccnc2)c(Cl)c1
[1]
  MIC: 1 µg/mL (≈ 2.91 µM)
[2]
  MIC: 16 µg/mL (≈ 46.5 µM)
[3]
  MIC: 16 µg/mL (≈ 46.5 µM)
[4]
  MIC: 32 µg/mL (≈ 93 µM)
[5]
  MIC: 16 µg/mL (≈ 46.5 µM)
[6]
  IC50 at 96 h: 16.2 µg/mL (≈ 47 µM)
[7]
  IC50 at 96 h: 14.7 µg/mL (≈ 42.7 µM)
[8]
  IC50 at 96 h: 14.6 µg/mL (≈ 42.5 µM)

## N#C[Se]CCCOC(=O)CCCC[C@@H]1SC[C@@H]2NC(=O)N[C@@H]21
[26]
  IC50: > 100 µM
[27]
  IC50: > 100 µM
[28]
  IC50: 91.6 µM
[29]
  IC50: 22.3 µM
[30]
  IC50: > 100 µM

## CN(C)CCC[Se]c1cnc(-c2cccc(Cn3nc(-c4cccc(C#N)c4)ccc3=O)c2)nc1
[24]
  IC50: 0.01 µM

## CCCc1cc(=O)[nH]c(=S)[nH]1 [PROPYLTHIOURACIL]
[14]
  IC50: 95 µM

## CC[Se]C(=O)CCCC[C@@H]1SC[C@@H]2NC(=O)N[C@@H]21
[26]
  IC50: 34.2 µM
[27]
  IC50: 40.4 µM
[28]
  IC50: 14.5 µM
[29]
  IC50: 12.8 µM
[30]
  IC50: 38.8 µM

## Cn1cc[nH]c1=S [METHIMAZOLE]
[36]
  IC50: 0.51 µM

## C=C1N(C)C=CN1CCCCn1ccn(C)c1=[Se]
[31]
  Activity: 56%
